This is an account of results in ChEMBL document CHEMBL1201862, “PubChem BioAssay data set” (2004).

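Grown in 96-well plates, cells were treated for 48 hours with each compound at five concentrations. Insufficient inhibition: endpoint recorded as highest concentration tested. Here, GI50 denotes the concentration required for 50% inhibition of growth.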 Activity calls are given as the source filed them. No stated cut-off is given here; in the data, active = GI50 up to about 1.1 µM and inactive = higher.

Experiment in all cases: NCI tumour cell line growth inhibition, 48 h
In assay [1] the test system is HT-29.
Assay [2] has as its system IGROV-1.
Assay [3] deals with OVCAR-5.
Assay [4] concerns HCT-15.
The subject of assay [5] is HL-60.
For assay [6], the system named is UACC-257.
For assay [7], the system named is SN12C.
Assay [8] deals with MCF7.
Assay [9] relates to HOP-62.
In assay [10] the test system is OVCAR-4.
For assay [11], the system named is OVCAR-3.
Assay [12] concerns A549.
For assay [13], the system named is SK-MEL-28.
The test system of assay [14] is SF-295.
Assay [15] deals with MOLT-4.
The subject of assay [16] is UACC-62.
Assay [17] concerns SR.
In assay [18] the test system is U-251.
Assay [19] concerns SNB-19.
The test system of assay [20] is 786-0.

Regarding `Cn1c(Sc2ccc(-c3cccnc3)n2C)ccc1-c1cccnc1`, the GI50 was 23.7 µM (inactive) in assay [1]; 15 µM (inactive) in [2]; 22.9 µM (inactive) in [3]; 16.8 µM in assay [4]; 2.39 µM (inactive) in assay [5]; 12.4 µM (inactive) in [6]. For the same compound, the GI50 in assay [7] is 16.8 µM (inactive); in [8], 17.7 µM (inactive); in [9], 17.6 µM (inactive); in assay [10], 14.6 µM (inactive); in [11] it was 11.3 µM (inactive); in assay [12] it was 26.4 µM (inactive). For the same compound, the GI50 in assay [13] is 10.3 µM (inactive); in assay [14], 16.2 µM (inactive); in assay [15], 0.353 µM (active); in assay [16], 14.9 µM (inactive); in [17] it was 2.13 µM (inactive); in assay [18] it was 13.1 µM (inactive). Further, the results for the GI50 in assay [19] and in [20] were 19.6 µM (inactive) and 11.5 µM (inactive), respectively.
Regarding `N=C(N)SCc1ccc(Cl)c2ccccc12.O=[N+]([O-])c1c(O)c(Cl)cc(Cl)c1Cl`, the GI50 in assay [1] was 10.2 µM (inactive); in assay [2] it was 13 µM (inactive); in assay [3], 13 µM (inactive); in assay [4] it was 14.3 µM; in assay [5], 4.38 µM (inactive); in assay [6] it was 4.72 µM (inactive). In addition, the GI50 in [7] was 11.3 µM (inactive); in assay [8], 11.2 µM (inactive); in [9], 11.5 µM (inactive); in assay [10], 4.65 µM (inactive); in assay [11], 9.18 µM (inactive); in assay [12] it was 14.6 µM (inactive). In addition, the GI50 in assay [13] was 14.1 µM (inactive); in [14] it was 11.6 µM (inactive); in assay [15] it was 5.09 µM (inactive); in [16] it was 13.5 µM (inactive); in assay [17], 5.42 µM (inactive); in [18], 12.9 µM (inactive). Also, the results for the GI50 in assay [19] and in assay [20] were 14.4 µM (inactive) and 11.3 µM (inactive), respectively.
Regarding `C=C(C)c1nc(Oc2ccccc2)nc(Oc2ccccc2)n1`, the GI50 in [1] is 3.99 µM (inactive); in [2], 9.38 µM (inactive); in [3], 16.6 µM (inactive); in assay [4], 2.81 µM; in assay [5], 2.06 µM (inactive); in assay [6], 9.55 µM (inactive). The GI50 in assay [7] is 5.6 µM (inactive); in assay [8], 3.08 µM (inactive); in assay [9], 16.1 µM (inactive); in [10] it was 11.2 µM (inactive); in [11] it was 6.04 µM (inactive); in assay [12], 19.5 µM (inactive). For the same compound, the GI50 in assay [13] is 3.86 µM (inactive); in assay [14], 14.9 µM (inactive); in assay [15] it was 0.664 µM (active); in assay [16], 5.78 µM (inactive); in assay [17], 2.86 µM (inactive); in assay [18] it was 10.6 µM (inactive). In addition, the GI50 is 9.33 µM (inactive) in assay [19] and 4.58 µM (inactive) in assay [20].
Turning to `Cc1ccc([S@+]([O-])c2occc2C=O)cc1`, the GI50 in assay [1] was 7.38 µM (inactive); in assay [2] it was 11.7 µM (inactive); in assay [3] it was 19.2 µM (inactive); in assay [4], 3.49 µM; in assay [5], 1.8 µM (inactive); in assay [6], 12.4 µM (inactive). Also, the GI50 in [7] was 7.26 µM (inactive); in assay [8] it was 3.48 µM (inactive); in [9], 17.5 µM (inactive); in [10] it was 9.98 µM (inactive); in assay [11] it was 2.81 µM (inactive); in assay [12] it was 19.6 µM (inactive). Further, the GI50 is 3.82 µM (inactive) in [13]; 17.7 µM (inactive) in [14]; 1.79 µM (inactive) in assay [15]; 15.5 µM (inactive) in [16]; 1.71 µM (inactive) in [17]; 12.9 µM (inactive) in assay [18]. Also, the GI50 is 5.07 µM (inactive) in [19] and 3.95 µM (inactive) in assay [20].
Turning to `Fc1ccc(N2C(=S)SC(=N\c3ccccc3)/C2=N/c2ccccc2)cc1`, the GI50 in assay [1] is 27.1 µM (inactive); in [2], > 43.8 µM (inactive); in assay [3], > 85.3 µM (inactive); in assay [4], above 85.1 µM; in [5], 53.8 µM (inactive); in assay [6], > 67.1 µM (inactive). Besides, the GI50 is > 100 µM (inactive) in assay [7]; > 73.8 µM (inactive) in [8]; > 75 µM (inactive) in [9]; > 57.7 µM (inactive) in [10]; 41.6 µM (inactive) in [11]; > 79.8 µM (inactive) in assay [12]. The GI50 in assay [13] was > 100 µM (inactive); in [14], > 100 µM (inactive); in [15], 5.86 µM (inactive); in [16], > 92 µM (inactive); in assay [17] it was 25.1 µM (inactive); in assay [18], > 87.7 µM (inactive). The GI50 in assay [19] and in assay [20] was > 100 µM (inactive) throughout.
As to `OCCN(CCO)CCn1cnc2c(NCc3ccccc3)ncnc21`, the GI50 in [1] is > 100 µM (inactive); in assay [2], > 100 µM (inactive); in assay [3], > 100 µM (inactive); in [4], above 100 µM; in assay [5] it was > 100 µM (inactive); in assay [6], > 100 µM (inactive). The GI50 in assay [7], in assay [8], in assay [9], in [10], in assay [11] and in [12] was > 100 µM (inactive) each time. Besides, the GI50 in assay [13], in [14], in [15], in assay [16], in assay [17] and in assay [18] was > 100 µM (inactive) in each case. Further, the GI50 in assay [19] and in assay [20] was > 100 µM (inactive) throughout.
As to `COc1ccc(NS(=O)(=O)c2ccc3ncn(NS(=O)(=O)c4ccc(I)cc4)c(=O)c3c2)cc1`, the GI50 in [1] is > 100 µM (inactive); in [2] it was > 100 µM (inactive); in [3], > 100 µM (inactive); in [4] it was above 100 µM; in assay [5] it was 49.3 µM (inactive); in assay [6], > 100 µM (inactive). The GI50 in assay [7], in assay [8], in assay [9], in assay [10], in assay [11] and in assay [12] was > 100 µM (inactive) each time. The GI50 in [13] was > 100 µM (inactive); in [14], > 100 µM (inactive); in assay [15] it was > 100 µM (inactive); in assay [16] it was 95.9 µM (inactive); in assay [17], 72.9 µM (inactive); in assay [18], > 100 µM (inactive). Also, the GI50 in assay [19] and in assay [20] was > 100 µM (inactive) each time.
`O=P1(NCCCl)OCCC(OO)N1CCCl` (stereo not given): the GI50 in [1] is 36.6 µM (inactive); in assay [2], > 100 µM (inactive); in [3], 42.9 µM (inactive); in [4] it was 18 µM; in assay [5] it was 6.82 µM (inactive); in assay [6], 32.1 µM (inactive). Besides, the GI50 in assay [7] was 37.4 µM (inactive); in assay [8] it was 24.9 µM (inactive); in assay [9], 52.4 µM (inactive); in assay [10], 20.5 µM (inactive); in assay [11], 23.2 µM (inactive); in assay [12], > 71.9 µM (inactive). The GI50 in [13] was 18.9 µM (inactive); in assay [14], 1.72 µM (inactive); in assay [15], > 36.9 µM (inactive); in [16], 21.1 µM (inactive); in assay [17] it was > 100 µM (inactive); in assay [18], 32.4 µM (inactive). The results for the GI50 in [19] and in assay [20] were > 52 µM (inactive) and 26.1 µM (inactive), respectively.
As to `C=C(CN(C)C)C(=O)c1ccc(OC)cc1`, the GI50 in assay [1] is 5.71 µM (inactive); in [2], 10.7 µM (inactive); in assay [3], 13.6 µM (inactive); in [4] it was 1.76 µM; in assay [5] it was 0.198 µM (active); in assay [6], 5.31 µM (inactive). Also, the GI50 is 2.48 µM (inactive) in [7]; 2.77 µM (inactive) in assay [8]; 21.7 µM (inactive) in assay [9]; 5.26 µM (inactive) in [10]; 2.77 µM (inactive) in assay [11]; 18.2 µM (inactive) in [12]. Moreover, the GI50 was 3.49 µM (inactive) in assay [13]; 28.5 µM (inactive) in [14]; 0.52 µM (active) in [15]; 9.33 µM (inactive) in assay [16]; 1.05 µM (active) in assay [17]; 10.3 µM (inactive) in assay [18]. The GI50 is 20 µM (inactive) in [19] and 1.72 µM (inactive) in assay [20].
`CNC=O`: the GI50 was > 10000 µM (inactive) in [1]; > 10000 µM (inactive) in assay [2]; > 10000 µM (inactive) in assay [3]; above 10000 µM in assay [4]; > 10000 µM (inactive) in assay [5]; > 10000 µM (inactive) in [6]. In addition, the GI50 in [7] was > 7740 µM (inactive); in assay [8], > 10000 µM (inactive); in assay [9] it was > 3980 µM (inactive); in [10], > 10000 µM (inactive); in [11] it was > 9310 µM (inactive); in assay [12], > 10000 µM (inactive). Moreover, the GI50 in assay [13] is > 10000 µM (inactive); in assay [14], > 9510 µM (inactive); in assay [15] it was > 10000 µM (inactive); in assay [16] it was > 8090 µM (inactive); in assay [17], > 10000 µM (inactive); in [18] it was 9930 µM (inactive). The GI50 in assay [19] and in assay [20] was > 10000 µM (inactive) in each case.
